Reference: patent US11174252B2, “Heterocyclic compounds as kinase inhibitors” (priority 2018, dated 2021)
Where two headings read alike, the source gives them in different places.

Legend:
CDK6 = CDK6 (Homo sapiens (Human), UniProt Q00534); test: biochemical; type: biochemical
MCF-7 = test: Cancer cell proliferation assay, single agent; type: cell-based; settings: Homo sapiens, MCF7; MCF-7 cells; treated for 24-168 hours; read-out: IC50 (nM) MCF-7
PI3Kδ kinase = PI3Kδ kinase (Homo sapiens (Human), UniProt O00329); test: PI3Kδ kinase ADP-Glo assay (Reaction Biology Corporation); settings: read-out: PI3Kδ IC50
CDK4 = CDK4 (Homo sapiens (Human), UniProt P11802); test: In vitro kinase inhibition, luminescence (ADP-Glo) with retinoblastoma substrate; type: biochemical
FMS kinase = FMS kinase (Homo sapiens (Human), UniProt P07333); test: LanthaScreen kinase assay (ATP, fluorescent-PolyGT substrate, TR-FRET); type: biochemical
DU4475 = test: Cancer cell proliferation assay, single agent; type: cell-based; settings: Homo sapiens
[1] = DU-4475, DU4475 cells, treated for 24-168 hours, read-out: IC50 (nM) DU4475

Sequence of FMS kinase (P07333 20-972): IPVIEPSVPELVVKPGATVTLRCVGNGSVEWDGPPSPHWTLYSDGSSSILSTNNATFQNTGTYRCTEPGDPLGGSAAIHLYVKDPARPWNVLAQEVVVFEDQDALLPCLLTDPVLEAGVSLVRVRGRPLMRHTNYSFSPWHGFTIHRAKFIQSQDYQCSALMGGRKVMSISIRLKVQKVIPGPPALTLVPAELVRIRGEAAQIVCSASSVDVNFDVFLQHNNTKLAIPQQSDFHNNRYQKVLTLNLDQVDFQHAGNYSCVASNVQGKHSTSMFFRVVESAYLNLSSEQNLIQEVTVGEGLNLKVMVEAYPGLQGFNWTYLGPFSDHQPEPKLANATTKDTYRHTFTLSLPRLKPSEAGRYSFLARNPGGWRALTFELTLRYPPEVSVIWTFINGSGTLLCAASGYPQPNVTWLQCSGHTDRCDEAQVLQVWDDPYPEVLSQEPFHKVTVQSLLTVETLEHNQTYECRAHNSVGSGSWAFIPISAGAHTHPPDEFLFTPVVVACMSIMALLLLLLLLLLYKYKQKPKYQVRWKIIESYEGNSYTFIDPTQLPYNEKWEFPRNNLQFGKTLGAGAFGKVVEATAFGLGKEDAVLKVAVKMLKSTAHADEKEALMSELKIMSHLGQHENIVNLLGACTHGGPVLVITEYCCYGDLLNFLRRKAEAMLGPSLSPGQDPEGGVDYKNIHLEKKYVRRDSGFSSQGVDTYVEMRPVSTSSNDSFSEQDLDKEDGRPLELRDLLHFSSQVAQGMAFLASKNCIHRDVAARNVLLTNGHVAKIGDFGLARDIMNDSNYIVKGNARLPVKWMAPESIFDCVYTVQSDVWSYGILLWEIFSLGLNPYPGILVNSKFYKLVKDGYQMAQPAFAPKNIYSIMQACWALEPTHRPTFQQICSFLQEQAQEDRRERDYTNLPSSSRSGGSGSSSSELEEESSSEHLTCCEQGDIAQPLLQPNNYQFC
Sequence of CDK4 (P11802 whole entry): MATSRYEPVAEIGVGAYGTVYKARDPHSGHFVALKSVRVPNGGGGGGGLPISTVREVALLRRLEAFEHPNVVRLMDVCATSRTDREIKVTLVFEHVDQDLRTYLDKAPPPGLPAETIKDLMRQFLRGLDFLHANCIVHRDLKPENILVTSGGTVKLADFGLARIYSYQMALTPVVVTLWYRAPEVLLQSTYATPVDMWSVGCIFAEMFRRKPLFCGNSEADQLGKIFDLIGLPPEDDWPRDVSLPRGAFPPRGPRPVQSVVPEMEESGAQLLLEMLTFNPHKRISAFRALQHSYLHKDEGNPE
Sequence of CDK4 (P24385 whole entry partner): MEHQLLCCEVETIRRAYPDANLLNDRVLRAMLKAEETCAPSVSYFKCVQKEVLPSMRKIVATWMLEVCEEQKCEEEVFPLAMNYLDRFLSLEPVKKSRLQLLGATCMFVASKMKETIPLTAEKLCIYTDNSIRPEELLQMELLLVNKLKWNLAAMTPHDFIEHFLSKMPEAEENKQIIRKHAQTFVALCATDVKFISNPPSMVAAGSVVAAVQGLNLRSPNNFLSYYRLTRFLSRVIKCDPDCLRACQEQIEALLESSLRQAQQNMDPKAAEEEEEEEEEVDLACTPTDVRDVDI
Sequence of PI3Kδ kinase (O00329 whole entry): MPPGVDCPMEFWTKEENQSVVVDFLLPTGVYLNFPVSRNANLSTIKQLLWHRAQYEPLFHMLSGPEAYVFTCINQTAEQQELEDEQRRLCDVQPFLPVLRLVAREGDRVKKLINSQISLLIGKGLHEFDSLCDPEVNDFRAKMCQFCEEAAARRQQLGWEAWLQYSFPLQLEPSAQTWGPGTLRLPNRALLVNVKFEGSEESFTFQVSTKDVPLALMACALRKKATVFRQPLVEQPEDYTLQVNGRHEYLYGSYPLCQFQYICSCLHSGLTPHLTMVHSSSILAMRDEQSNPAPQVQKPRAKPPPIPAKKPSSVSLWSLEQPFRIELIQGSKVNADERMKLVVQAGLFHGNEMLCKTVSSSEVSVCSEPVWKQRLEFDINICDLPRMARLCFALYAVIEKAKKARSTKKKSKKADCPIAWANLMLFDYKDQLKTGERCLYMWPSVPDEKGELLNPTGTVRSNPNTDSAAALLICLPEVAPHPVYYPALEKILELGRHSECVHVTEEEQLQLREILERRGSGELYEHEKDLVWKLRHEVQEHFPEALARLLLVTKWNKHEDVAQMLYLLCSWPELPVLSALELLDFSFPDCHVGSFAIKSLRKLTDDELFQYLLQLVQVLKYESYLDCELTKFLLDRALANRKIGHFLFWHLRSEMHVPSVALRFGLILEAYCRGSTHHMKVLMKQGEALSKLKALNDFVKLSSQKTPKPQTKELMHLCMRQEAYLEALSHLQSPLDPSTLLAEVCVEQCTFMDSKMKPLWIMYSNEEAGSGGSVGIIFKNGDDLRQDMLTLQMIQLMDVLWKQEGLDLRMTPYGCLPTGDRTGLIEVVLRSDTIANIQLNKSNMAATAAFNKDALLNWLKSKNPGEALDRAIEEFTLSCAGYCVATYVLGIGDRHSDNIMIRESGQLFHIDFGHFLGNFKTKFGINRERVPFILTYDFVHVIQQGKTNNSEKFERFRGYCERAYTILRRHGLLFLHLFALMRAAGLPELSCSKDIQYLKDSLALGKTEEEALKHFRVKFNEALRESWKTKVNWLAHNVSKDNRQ
Sequence of PI3Kδ kinase (P27986 whole entry partner): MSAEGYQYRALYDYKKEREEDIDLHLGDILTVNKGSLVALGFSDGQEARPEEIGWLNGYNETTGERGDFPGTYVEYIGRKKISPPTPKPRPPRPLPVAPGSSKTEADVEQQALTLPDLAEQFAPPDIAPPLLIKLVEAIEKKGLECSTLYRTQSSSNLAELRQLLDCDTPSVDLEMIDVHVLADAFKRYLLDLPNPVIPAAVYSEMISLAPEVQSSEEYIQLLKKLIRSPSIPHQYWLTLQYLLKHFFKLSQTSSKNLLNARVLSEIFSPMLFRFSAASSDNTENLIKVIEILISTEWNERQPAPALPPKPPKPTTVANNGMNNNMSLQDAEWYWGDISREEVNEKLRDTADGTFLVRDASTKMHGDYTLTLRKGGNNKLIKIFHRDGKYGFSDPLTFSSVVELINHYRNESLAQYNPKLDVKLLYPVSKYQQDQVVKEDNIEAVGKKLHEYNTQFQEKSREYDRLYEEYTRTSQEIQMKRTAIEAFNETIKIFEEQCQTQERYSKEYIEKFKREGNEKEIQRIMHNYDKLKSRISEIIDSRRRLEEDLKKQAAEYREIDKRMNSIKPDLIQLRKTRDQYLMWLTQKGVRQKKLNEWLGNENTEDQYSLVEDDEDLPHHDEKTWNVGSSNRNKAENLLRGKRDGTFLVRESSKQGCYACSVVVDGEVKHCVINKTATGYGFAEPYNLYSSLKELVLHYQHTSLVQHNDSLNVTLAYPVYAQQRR

IC50 (CDK6) [nM] | IC50 (MCF-7) [nM] | IC50 (PI3Kδ kinase) [nM] | IC50 (CDK4) [nM] | IC50 (FMS kinase) [nM] | IC50 (DU4475; [1]) [nM] | Structure (SMILES) | IC50 (DU4475; DU-4475, read-out: IC50 (nM) DU4475) [nM]
– | 300 | 1160 | – | 776 | 940 | CC(=O)N1CCN(c2ccc(Nc3ncc(F)c(-c4cc(F)c5c(c4)N(C(C)C)CCO5)n3)nc2)CC1 [Compound 474, 1-(4-(6-((5-fluoro-4-(8-fluoro-4-isopropyl-3,4-dihydro-2H-benzo[b][1,4]oxazin-6-yl)pyrimidin-2-yl)amino)pyridin-3-yl)piperazin-1-yl)ethan-1-one] | –
45 | 50 | 589 | 20 | 8 | – | CC(C)N1CCOc2c(F)cc(-c3nc(Nc4cnn(C5CCC(O)CC5)c4)ncc3F)cc21 (stereo not drawn) [Compound 452, 4-(4-((5-fluoro-4-(8-fluoro-4-isopropyl-3,4-dihydro-2H-benzo[b][1,4]oxazin-6-yl)pyrimidin-2-yl)amino)-1H-pyrazol-1-yl)cyclohexan-1-ol] | –
123 | 80 | 397 | 37 | 66 | – | CC(C)N1CCOc2c(F)cc(-c3nc(Nc4ccc(N5CCS(=O)(=O)CC5)c(F)c4)ncc3F)cc21 [Compound 465, 4-(2-fluoro-4-((5-fluoro-4-(8-fluoro-4-isopropyl-3,4-dihydro-2H-benzo[b][1,4]oxazin-6-yl)pyrimidin-2-yl)amino)phenyl)thiomorpholine 1,1-dioxide] | –
0.6 | 95 | > 50000 | 1 | 526 | – | CC(C)N1CCOc2c(F)cc(-c3nc(Nc4ccc(N5CCN(C(=O)CN(C)C)CC5)cn4)ncc3F)cc21 [Compound 441, 2-(dimethylamino)-1-(4-(6-((5-fluoro-4-(8-fluoro-4-isopropyl-3,4-dihydro-2H-benzo[b][1,4]oxazin-6-yl)pyrimidin-2-yl)amino)pyridin-3-yl)piperazin-1-yl)ethan-1-one] | –
2 | 30 | 35000 | 2 | 24 | – | CC(C)N1CCOc2c(F)cc(-c3nc(Nc4ccc(N5CCN(C(=O)CN(C)C)CC5)cc4)ncc3F)cc21 [Compound 440, 2-(dimethylamino)-1-(4-(4-((5-fluoro-4-(8-fluoro-4-isopropyl-3,4-dihydro-2H-benzo[b][1,4]oxazin-6-yl)pyrimidin-2-yl)amino)phenyl)piperazin-1-yl)ethan-1-one] | –
3 | 285 | > 50000 | 3 | 950 | – | CC(C)N1CCOc2c(F)cc(-c3nc(Nc4cc(F)c(C5CCNCC5)cn4)ncc3F)cc21 [Compound 443, 5-fluoro-4-(8-fluoro-4-isopropyl-3,4-dihydro-2H-benzo[b][1,4]oxazin-6-yl)-N-(4-fluoro-5-(piperidin-4-yl)pyridin-2-yl)pyrimidin-2-amine] | –
69 | 120 | > 50000 | 31 | 69 | – | CC(C)N1CCOc2c(F)cc(-c3nc(Nc4ccc(N5CCC(O)CC5)c(F)c4)ncc3F)cc21 [Compound 445, 1-(2-fluoro-4-((5-fluoro-4-(8-fluoro-4-isopropyl-3,4-dihydro-2H-benzo[b][1,4]oxazin-6-yl)pyrimidin-2-yl)amino)phenyl)piperidin-4-ol] | –
83 | 920 | > 50000 | 18 | > 5000 | – | CC(C)N1CCOc2c(F)cc(-c3nc(Nc4ccc(C5CCN(C(=O)N(C)C)CC5)cn4)ncc3F)cc21 [Compound 454, 4-(6-((5-fluoro-4-(8-fluoro-4-isopropyl-3,4-dihydro-2H-benzo[b][1,4]oxazin-6-yl)pyrimidin-2-yl)amino)pyridin-3-yl)-N,N-dimethylpiperidine-1-carboxamide] | –
10 | 105 | 1110 | 4 | 35 | – | CN1CCC(c2ccc(Nc3ncc(F)c(-c4cc(F)c5c(c4)N(C)CCO5)n3)cc2F)CC1 [Compound 466, 5-fluoro-N-(3-fluoro-4-(1-methylpiperidin-4-yl)phenyl)-4-(8-fluoro-4-methyl-3,4-dihydro-2H-benzo[b][1,4]oxazin-6-yl)pyrimidin-2-amine] | –

The remaining lines, values behind:

Structure (SMILES) | IC50 (CDK6) [nM] | IC50 (MCF-7) [nM] | IC50 (PI3Kδ kinase) [nM] | IC50 (CDK4) [nM] | IC50 (FMS kinase) [nM] | IC50 (DU4475; [1]) [nM] | IC50 (DU4475; DU-4475, read-out: IC50 (nM) DU4475) [nM]
CN1CCOc2c(F)cc(-c3nc(Nc4ccc(N5CCC(N(C)C)CC5)c(F)c4)ncc3F)cc21 [Compound 467, N-(4-(4-(dimethylamino)piperidin-1-yl)-3-fluorophenyl)-5-fluoro-4-(8-fluoro-4-methyl-3,4-dihydro-2H-benzo[b][1,4]oxazin-6-yl)pyrimidin-2-amine] | 5 | 185 | 2430 | 4 | 14 | – | –
CC(C)N1CCOc2c(F)cc(-c3nc(Nc4ccc(N5CCN(CCO)CC5)cn4)ncc3F)cc21 [Compound 490, 2-(4-(6-((5-fluoro-4-(8-fluoro-4-isopropyl-3,4-dihydro-2H-benzo[b][1,4]oxazin-6-yl)pyrimidin-2-yl)amino)pyridin-3-yl)piperazin-1-yl)ethan-1-ol] | – | 80 | > 50000 | – | 2120 | – | 420
CCCN1CCOc2c(F)cc(-c3nc(Nc4ccc(N5CCC(N(C)C)CC5)c(F)c4)ncc3F)cc21 [Compound 468, N-(4-(4-(dimethylamino)piperidin-1-yl)-3-fluorophenyl)-5-fluoro-4-(8-fluoro-4-propyl-3,4-dihydro-2H-benzo[b][1,4]oxazin-6-yl)pyrimidin-2-amine] | 8 | 95 | 3780 | 8 | 36 | – | –
CC(C)N1CCOc2c(F)cc(-c3nc(Nc4ccc(N5CCC(CO)CC5)cn4)ncc3F)cc21 [Compound 485, (1-(6-((5-fluoro-4-(8-fluoro-4-isopropyl-3,4-dihydro-2H-benzo[b][1,4]oxazin-6-yl)pyrimidin-2-yl)amino)pyridin-3-yl)piperidin-4-yl)methanol] | – | 470 | > 50000 | – | 3250 | 555 | –
CC(C)N1CCOc2c(F)cc(-c3nc(Nc4ccc(N5CCC(CCO)CC5)cn4)ncc3F)cc21 [Compound 491, 2-(1-(6-((5-fluoro-4-(8-fluoro-4-isopropyl-3,4-dihydro-2H-benzo[b][1,4]oxazin-6-yl)pyrimidin-2-yl)amino)pyridin-3-yl)piperidin-4-yl)ethan-1-ol] | – | 465 | > 50000 | – | 4590 | 450 | –
CC(C)N1CCOc2c(F)cc(-c3nc(Nc4ccc(C5CCN(C(=O)CN(C)C)CC5)cn4)ncc3F)cc21 [Compound 450, 2-(dimethylamino)-1-(4-(6-((5-fluoro-4-(8-fluoro-4-isopropyl-3,4-dihydro-2H-benzo[b][1,4]oxazin-6-yl)pyrimidin-2-yl)amino)pyridin-3-yl)piperidin-1-yl)ethan-1-one] | 0.3 | 240 | > 50000 | 0.5 | 214 | – | –
CC(C)N1CCOc2c(F)cc(-c3nc(Nc4cc5n(n4)CCN(C)C5)ncc3F)cc21 [Compound 444, N-(5-fluoro-4-(8-fluoro-4-isopropyl-3,4-dihydro-2H-benzo[b][1,4]oxazin-6-yl)pyrimidin-2-yl)-5-methyl-4,5,6,7-tetrahydropyrazolo[1,5-a]pyrazin-2-amine] | 3.4 | 1250 | > 50000 | 1.6 | 67 | – | –
CC(C)N1CCOc2c(F)cc(-c3nc(Nc4ccc5c(c4)CN(C(=O)CN(C)C)CC5)ncc3F)cc21 [Compound 455, 2-(dimethylamino)-1-(7-((5-fluoro-4-(8-fluoro-4-isopropyl-3,4-dihydro-2H-benzo[b][1,4]oxazin-6-yl)pyrimidin-2-yl)amino)-3,4-dihydroisoquinolin-2(1H)-yl)ethan-1-one] | 3 | < 4 | 13100 | 4.5 | 1.5 | – | –
CC(C)N1CCOc2c(F)cc(-c3nc(Nc4ccc(C5CCN(C(=O)CN(C)C)CC5)c(F)c4)ncc3F)cc21 [Compound 451, 2-(dimethylamino)-1-(4-(2-fluoro-4-((5-fluoro-4-(8-fluoro-4-isopropyl-3,4-dihydro-2H-benzo[b][1,4]oxazin-6-yl)pyrimidin-2-yl)amino)phenyl)piperidin-1-yl)ethan-1-one] | 27 | 30 | > 50000 | 28 | 28 | – | –
CC(C)N1CCOc2c(F)cc(-c3nc(Nc4ccc(N5CCN(C(=O)N(C)C)CC5)cn4)ncc3F)cc21 [Compound 453, 4-(6-((5-fluoro-4-(8-fluoro-4-isopropyl-3,4-dihydro-2H-benzo[b][1,4]oxazin-6-yl)pyrimidin-2-yl)amino)pyridin-3-yl)-N,N-dimethylpiperazine-1-carboxamide] | 30 | 695 | > 50000 | 12 | > 5000 | – | –
CC(C)N1CCOc2c(F)cc(-c3nc(Nc4ccc(N5CCN(C(=O)CN(C)C)CC5)c(F)c4)ncc3F)cc21 [Compound 449, 2-(dimethylamino)-1-(4-(2-fluoro-4-((5-fluoro-4-(8-fluoro-4-isopropyl-3,4-dihydro-2H-benzo[b][1,4]oxazin-6-yl)pyrimidin-2-yl)amino)phenyl)piperazin-1-yl)ethan-1-one] | 0.9 | 50 | 4480 | 1.1 | 9.5 | – | –
